Data taken from ChEMBL document CHEMBL3885881, “DrugMatrix”.

Organism: Rattus norvegicus
Assay: DrugMatrix - Regimen: Daily Repeat
Type: toxicity, organism-based, Sprague-Dawley
Design: regimen Daily Repeat, gender Male, age 6-8 weeks
Conditions: in vivo, po, route oral GAVAGE, vehicle 100 % WATER; for ABSOLUTE BASOPHIL / ABSOLUTE EOSINOPHIL / ABSOLUTE LYMPHOCYTE / ABSOLUTE MONOCYTE / ABSOLUTE SEGMENTED NEUTROPHIL / BASOPHIL / EOSINOPHIL / ERYTHROCYTE COUNT / HEMATOCRIT / HEMOGLOBIN / LEUKOCYTE COUNT / LYMPHOCYTE / MEAN CORPUSCULAR HEMOGLOBIN / MEAN CORPUSCULAR HEMOGLOBIN CONCENTRATION / MEAN CORPUSCULAR VOLUME / MONOCYTE / NEUTROPHIL / NUCLEATED RED BLOOD CELLS / PLATELET COUNT: tissue Blood; for ALANINE AMINOTRANSFERASE / ALBUMIN / ALKALINE PHOSPHATASE / ASPARTATE AMINOTRANSFERASE / BLOOD UREA NITROGEN / CARBON DIOXIDE / CHLORIDE / CHOLESTEROL / CREATINE PHOSPHOKINASE / CREATININE / GLUCOSE / LACTATE DEHYDROGENASE / LIPASE / PHOSPHORUS / POTASSIUM / SODIUM / TOTAL BILIRUBIN / TOTAL PROTEIN / URIC ACID: tissue Plasma
[1] = 48 mg/kg, 72 h, dose level High, time 3 day
[2] = 48 mg/kg, 120 h, dose level High, time 5 day
[3] = […], 72 h, dose 3.2 mg/Kg, dose level Low, time 3 day
[4] = […], 120 h, dose 3.2 mg/Kg, dose level Low, time 5 day

O=C(c1ccccc1)c1ccc2n1CCC2C(=O)O (configuration not stated) [KETOROLAC]
ABSOLUTE BASOPHIL [1]: 0 CELLS/uL
ABSOLUTE EOSINOPHIL [1]: 209.67 CELLS/uL
ABSOLUTE LYMPHOCYTE [1]: 27063 CELLS/uL
ABSOLUTE MONOCYTE [1]: 1382.33 CELLS/uL
ABSOLUTE SEGMENTED NEUTROPHIL [1]: 3145 CELLS/uL
BASOPHIL [1]: 0%
EOSINOPHIL [1]: 0.67%
ERYTHROCYTE COUNT [1]: 3.97 x10E6/uL
HEMATOCRIT [1]: 23.77%
HEMOGLOBIN [1]: 9.13 G/DL
LEUKOCYTE COUNT [1]: 31.8 x10E3/uL
LYMPHOCYTE [1]: 85%
MEAN CORPUSCULAR HEMOGLOBIN [1]: 23.5 pg
MEAN CORPUSCULAR HEMOGLOBIN CONCENTRATION [1]: 38.6 G/DL
MEAN CORPUSCULAR VOLUME [1]: 60.83 fL
MONOCYTE [1]: 4.33%
NEUTROPHIL [1]: 10%
NUCLEATED RED BLOOD CELLS [1]: 0.33 /100WBC
PLATELET COUNT [1]: 1452.33 x10E3/uL
ALANINE AMINOTRANSFERASE [1]: 19.67 u/L
ALBUMIN [1]: 3.1 G/DL
ALKALINE PHOSPHATASE [1]: 170.33 u/L
ASPARTATE AMINOTRANSFERASE [1]: 55.33 u/L
BLOOD UREA NITROGEN [1]: 14 mg/dL
CARBON DIOXIDE [1]: 24 mmol/L
CHLORIDE [1]: 105.33 MEQ/L
CHOLESTEROL [1]: 64.67 mg/dL
CREATINE PHOSPHOKINASE [1]: 293 u/L
CREATININE [1]: 0.19 mg/dL
GLUCOSE [1]: 170 mg/dL
LACTATE DEHYDROGENASE [1]: 145.33 u/L
LIPASE [1]: 7.67 u/L
PHOSPHORUS [1]: 12.67 mg/dL
POTASSIUM [1]: 7.45 MEQ/L
SODIUM [1]: 144.47 MEQ/L
TOTAL BILIRUBIN [1]: 0.13 mg/dL
TOTAL PROTEIN [1]: 5.17 G/DL
URIC ACID [1]: 3 mg/dL
ABSOLUTE BASOPHIL [2]: 0 CELLS/uL
ABSOLUTE EOSINOPHIL [2]: 0 CELLS/uL
ABSOLUTE LYMPHOCYTE [2]: 14525.25 CELLS/uL
ABSOLUTE MONOCYTE [2]: 548.5 CELLS/uL
ABSOLUTE SEGMENTED NEUTROPHIL [2]: 4876.25 CELLS/uL
BASOPHIL [2]: 0%
EOSINOPHIL [2]: 0%
ERYTHROCYTE COUNT [2]: 4.52 x10E6/uL
HEMATOCRIT [2]: 27.15%
HEMOGLOBIN [2]: 10.4 G/DL
LEUKOCYTE COUNT [2]: 19.95 x10E3/uL
LYMPHOCYTE [2]: 76.25%
MEAN CORPUSCULAR HEMOGLOBIN [2]: 23.03 pg
MEAN CORPUSCULAR HEMOGLOBIN CONCENTRATION [2]: 38.32 G/DL
MEAN CORPUSCULAR VOLUME [2]: 60.12 fL
MONOCYTE [2]: 3.25%
NEUTROPHIL [2]: 20.5%
NUCLEATED RED BLOOD CELLS [2]: 0.5 /100WBC
PLATELET COUNT [2]: 2011.5 x10E3/uL
ALANINE AMINOTRANSFERASE [2]: 73.25 u/L
ALBUMIN [2]: 2.58 G/DL
ALKALINE PHOSPHATASE [2]: 411.75 u/L
ASPARTATE AMINOTRANSFERASE [2]: 294 u/L
BLOOD UREA NITROGEN [2]: 25.5 mg/dL
CARBON DIOXIDE [2]: 25.25 mmol/L
CHLORIDE [2]: 102 MEQ/L
CHOLESTEROL [2]: 70.5 mg/dL
CREATINE PHOSPHOKINASE [2]: 1478 u/L
CREATININE [2]: 0.18 mg/dL
GLUCOSE [2]: 115.25 mg/dL
LACTATE DEHYDROGENASE [2]: 533.75 u/L
LIPASE [2]: 13.5 u/L
PHOSPHORUS [2]: 13.42 mg/dL
POTASSIUM [2]: 7.39 MEQ/L
SODIUM [2]: 142.23 MEQ/L
TOTAL BILIRUBIN [2]: 0.18 mg/dL
TOTAL PROTEIN [2]: 5.4 G/DL
URIC ACID [2]: 2.45 mg/dL
ABSOLUTE BASOPHIL [3]: 0 CELLS/uL
ABSOLUTE EOSINOPHIL [3]: 59.33 CELLS/uL
ABSOLUTE LYMPHOCYTE [3]: 7885.33 CELLS/uL
ABSOLUTE MONOCYTE [3]: 273 CELLS/uL
ABSOLUTE SEGMENTED NEUTROPHIL [3]: 682.33 CELLS/uL
BASOPHIL [3]: 0%
EOSINOPHIL [3]: 0.67%
ERYTHROCYTE COUNT [3]: 5.54 x10E6/uL
HEMATOCRIT [3]: 36.1%
HEMOGLOBIN [3]: 13.73 G/DL
LEUKOCYTE COUNT [3]: 8.9 x10E3/uL
LYMPHOCYTE [3]: 88.67%
MEAN CORPUSCULAR HEMOGLOBIN [3]: 24.83 pg
MEAN CORPUSCULAR HEMOGLOBIN CONCENTRATION [3]: 38.07 G/DL
MEAN CORPUSCULAR VOLUME [3]: 65.27 fL
MONOCYTE [3]: 3%
NEUTROPHIL [3]: 7.67%
NUCLEATED RED BLOOD CELLS [3]: 0 /100WBC
PLATELET COUNT [3]: 1257 x10E3/uL
ALANINE AMINOTRANSFERASE [3]: 47.67 u/L
ALBUMIN [3]: 4.6 G/DL
ALKALINE PHOSPHATASE [3]: 439.67 u/L
ASPARTATE AMINOTRANSFERASE [3]: 96 u/L
BLOOD UREA NITROGEN [3]: 11.33 mg/dL
CARBON DIOXIDE [3]: 32.33 mmol/L
CHLORIDE [3]: 102.5 MEQ/L
CHOLESTEROL [3]: 64.67 mg/dL
CREATINE PHOSPHOKINASE [3]: 218 u/L
CREATININE [3]: 0.17 mg/dL
GLUCOSE [3]: 144.33 mg/dL
LACTATE DEHYDROGENASE [3]: 103.33 u/L
LIPASE [3]: 9.33 u/L
PHOSPHORUS [3]: 11.4 mg/dL
POTASSIUM [3]: 6 MEQ/L
SODIUM [3]: 148.9 MEQ/L
TOTAL BILIRUBIN [3]: 0.0667 mg/dL
TOTAL PROTEIN [3]: 6.63 G/DL
URIC ACID [3]: 0.43 mg/dL
ABSOLUTE BASOPHIL [4]: 0 CELLS/uL
ABSOLUTE EOSINOPHIL [4]: 0 CELLS/uL
ABSOLUTE LYMPHOCYTE [4]: 9946 CELLS/uL
ABSOLUTE MONOCYTE [4]: 214 CELLS/uL
ABSOLUTE SEGMENTED NEUTROPHIL [4]: 540 CELLS/uL
BASOPHIL [4]: 0%
EOSINOPHIL [4]: 0%
ERYTHROCYTE COUNT [4]: 6.18 x10E6/uL
HEMATOCRIT [4]: 38.5%
HEMOGLOBIN [4]: 14.07 G/DL
LEUKOCYTE COUNT [4]: 10.7 x10E3/uL
LYMPHOCYTE [4]: 93%
MEAN CORPUSCULAR HEMOGLOBIN [4]: 22.77 pg
MEAN CORPUSCULAR HEMOGLOBIN CONCENTRATION [4]: 36.63 G/DL
MEAN CORPUSCULAR VOLUME [4]: 62.23 fL
MONOCYTE [4]: 2%
NEUTROPHIL [4]: 5%
NUCLEATED RED BLOOD CELLS [4]: 0 /100WBC
PLATELET COUNT [4]: 1155 x10E3/uL
ALANINE AMINOTRANSFERASE [4]: 40 u/L
ALBUMIN [4]: 4.43 G/DL
ALKALINE PHOSPHATASE [4]: 422.33 u/L
ASPARTATE AMINOTRANSFERASE [4]: 70.67 u/L
BLOOD UREA NITROGEN [4]: 14.67 mg/dL
CARBON DIOXIDE [4]: 33.67 mmol/L
CHLORIDE [4]: 102 MEQ/L
CHOLESTEROL [4]: 81 mg/dL
CREATINE PHOSPHOKINASE [4]: 512.33 u/L
CREATININE [4]: 0.16 mg/dL
GLUCOSE [4]: 169.33 mg/dL
LACTATE DEHYDROGENASE [4]: 125 u/L
LIPASE [4]: 9 u/L
PHOSPHORUS [4]: 13.57 mg/dL
POTASSIUM [4]: 6.98 MEQ/L
SODIUM [4]: 147.2 MEQ/L
TOTAL BILIRUBIN [4]: 0.2 mg/dL
TOTAL PROTEIN [4]: 6.37 G/DL
URIC ACID [4]: 1.83 mg/dL
